Data as given in PMC3312352, “Peptides of the Constant Region of Antibodies Display Fungicidal Activity” (PLoS ONE, 2012).
Read-outs that look alike come from different tables or passages of the source. Ends that are not written are not given here. Peptide text beside a SMILES is read from it.

Tests used:
C. albicans SC5314 [1] = settings: SC5314, 6 h
Experimental: (§1) Selected Fc-peptides, or their asds, were preliminarily tested at the concentration of 100 µg/ml. […] Conventional colony forming unit (CFU) assays were performed as previously described [2]. Briefly, yeast cells from a fresh (20 h at 30°C) actively growing colony on Sabouraud Dextrose agar (SDA) (C. albicans, C. glabrata, C. neoformans) or on SDA supplemented with 1% Tween 20 (M. furfur) were suspended in 199 medium. Initial germination was induced in C. albicans cells by incubation for 1 h at 37°C with shaking. Suspensions were properly diluted to obtain approximately 500 fungal cells in 100 µl of distilled water in the presence or absence (control growth) of the synthetic Fc-peptide to be tested. Cell suspensions were incubated at 37°C for 6 h, then plated on SDA or SDA-Tween. CFU were enumerated after 48–72 h of incubation at 30°C, and peptide fungicidal activity was determined as percentage of CFU inhibition, according to the formula 100-(CFU Fc-peptide treated/CFU control growth)×100. Each assay was carried out in triplicate for statistical purposes.
(§2) EC50 was calculated by nonlinear regression analysis using Graph Pad Prism 4.01 software, San Diego, CA, USA.

C. albicans CA-6 = settings: CA-6, 6 h
Experimental: as §1, §2

C. albicans SA40 = settings: SA40, 6 h
Experimental: as §1, §2

C. albicans AIDS68 [2] = settings: AIDS68, 6 h
Experimental: as §1, §2

C. albicans UM4 = settings: UM4, 6 h
Experimental: as §1, §2

C. glabrata OMNI32 = settings: OMNI32, 6 h
Experimental: as §1, §2

C. neoformans 6995 = settings: 6995, 6 h
Experimental: as §1, §2

M. furfur 101 = settings: 6 h
Experimental: as §1, §2

C. albicans AIDS68 [3] = assay: Experimental vaginal candidiasis in mice; type: in vivo, Candida albicans; settings: mice infected with C. albicans AIDS68; 100 µg in PBS at 1, 24, 48 h after challenge
C. albicans SC5314 [4] = assay: CFU assay, in vitro fungicidal activity; settings: for EC50 asd/EC50 T11F / EC50 asd/EC50 N10K: ratio of EC50 values against C. albicans SC5314; for EC50: read-out: EC50 (95% confidence intervals), scalar dilutions, 6 h at 37°C in distilled water, nonlinear regression; for EC50 / % inhibitory activity at 100 µg/ml in comparison to the control growth (water): CFU assay, C. albicans SC5314, triplicate; for % inhibitory activity at 100 µg/ml in comparison to the control growth (water): peptide 100 µg/ml, ~500 cells in 100 µl distilled water, 6 h at 37°C
Experimental: as §1, §2

| Compound | % inhibitory activity at 100 µg/ml in comparison to the control growth (water) (C. albicans SC5314 [1]) [%] | EC50 asd/EC50 T11F (C. albicans SC5314 [4]) | EC50 (C. albicans SC5314 [4]) [nM] | EC50 (C. albicans SC5314 [1]) [nM] | EC50 asd/EC50 N10K (C. albicans SC5314 [4]) | also measured |
| --- | --- | --- | --- | --- | --- | --- |
| CC(C)C[C@H](NC(=O)[C@H](C)NC(=O)[C@H](CCC(=O)O)NC(=O)[C@@H](N)Cc1c[nH]cn1)C(=O)O [Peptide H4L] (H-HEAL-OH; N-terminus and C-terminus assumed) | 84.34 |  |  |  |  | % inhibitory activity at 100 µg/ml in comparison to the control growth (water) (C. albicans CA-6): 57.04%; % inhibitory activity at 100 µg/ml in comparison to the control growth (water) (C. albicans SA40): 55.99%; % inhibitory activity at 100 µg/ml in comparison to the control growth (water) (C. albicans AIDS68 [2]): 59.82%; % inhibitory activity at 100 µg/ml in comparison to the control growth (water) (C. albicans UM4): 64.63%; % inhibitory activity at 100 µg/ml in comparison to the control growth (water) (C. glabrata OMNI32): 80.49%; % inhibitory activity at 100 µg/ml in comparison to the control growth (water) (C. neoformans 6995): 85.08%; % inhibitory activity at 100 µg/ml in comparison to the control growth (water) (M. furfur 101): 92.04% |
| OC(Cn1cncn1)(Cn1cncn1)c1ccc(F)cc1F [fluconazole] |  |  |  |  |  | response of vaginal infection to treatment (C. albicans AIDS68 [3]): resistant to treatment |
| ACRVDHRGLTF [Peptide T1A] | 100 | 0.48 | 738 |  |  |  |
| AQVSLTCLVK [Peptide N1A] | 100 |  |  | 587 | 0.58 |  |
| NAVSLTCLVK [Peptide Q2A] | 100 |  |  | 2300 | 2.30 |  |
| NQASLTCLVK [Peptide V3A] |  |  |  | 5930 | 5.91 | % inhibitory activity at 100 µg/ml in comparison to the control growth (water) (C. albicans SC5314 [4]): 100% |
| NQVALTCLVK [Peptide S4A] | 100 |  |  | 2390 | 2.38 |  |
| NQVSATCLVK [Peptide L5A] | 100 |  |  | 885 | 0.88 |  |
| NQVSLACLVK [Peptide T6A] | 100 |  |  | 4880 | 4.86 |  |
| NQVSLTALVK [Peptide C7A] | 73.41 |  |  | 54900 | 54.66 |  |
| NQVSLTCAVK [Peptide L8A] |  |  |  | 744 | 0.74 | % inhibitory activity at 100 µg/ml in comparison to the control growth (water) (C. albicans SC5314 [4]): 100% |
| NQVSLTCLAK [Peptide V9A] | 100 |  |  | 1780 | 1.77 |  |
| NQVSLTCLVA [Peptide K10A] | 0 |  |  |  |  |  |
| NQVSLTCLVK [Peptide N10K] | 100 |  |  |  |  | % inhibitory activity at 100 µg/ml in comparison to the control growth (water) (C. albicans CA-6): 100%; % inhibitory activity at 100 µg/ml in comparison to the control growth (water) (C. albicans SA40): 100%; % inhibitory activity at 100 µg/ml in comparison to the control growth (water) (C. albicans AIDS68 [2]): 100%; % inhibitory activity at 100 µg/ml in comparison to the control growth (water) (C. albicans UM4): 100%; % inhibitory activity at 100 µg/ml in comparison to the control growth (water) (C. glabrata OMNI32): 100%; % inhibitory activity at 100 µg/ml in comparison to the control growth (water) (C. neoformans 6995): 100%; % inhibitory activity at 100 µg/ml in comparison to the control growth (water) (M. furfur 101): 100% |
| TARVDHRGLTF [Peptide C2A] | 79.32 | 21.12 | 32500 |  |  |  |
| TCAVDHRGLTF [Peptide R3A] | 97.61 | 8.74 | 13500 |  |  |  |
| TCRADHRGLTF [Peptide V4A] | 100 | 0.74 | 1130 |  |  |  |
| TCRVAHRGLTF [Peptide D5A] | 100 | 0.26 | 395 |  |  |  |
| TCRVDARGLTF [Peptide H6A] | 100 | 6.76 | 10400 |  |  |  |
| TCRVDHAGLTF [Peptide R7A] | 100 | 7.83 | 12100 |  |  |  |
| TCRVDHRALTF [Peptide G8A] | 100 | 1.01 | 1550 |  |  |  |
| TCRVDHRGATF [Peptide L9A] | 100 | 1.14 | 1750 |  |  |  |
| TCRVDHRGLAF [Peptide T10A] | 100 | 0.55 | 850 |  |  |  |
| TCRVDHRGLTA [Peptide F11A] | 100 | 1.64 | 2520 |  |  |  |
| TCRVDHRGLTF [Peptide T11F] | 100 |  |  |  |  | % inhibitory activity at 100 µg/ml in comparison to the control growth (water) (C. albicans CA-6): 100%; % inhibitory activity at 100 µg/ml in comparison to the control growth (water) (C. albicans SA40): 100%; % inhibitory activity at 100 µg/ml in comparison to the control growth (water) (C. albicans AIDS68 [2]): 100%; % inhibitory activity at 100 µg/ml in comparison to the control growth (water) (C. albicans UM4): 100%; % inhibitory activity at 100 µg/ml in comparison to the control growth (water) (C. glabrata OMNI32): 100%; % inhibitory activity at 100 µg/ml in comparison to the control growth (water) (C. neoformans 6995): 100%; % inhibitory activity at 100 µg/ml in comparison to the control growth (water) (M. furfur 101): 100% |
